According to article PMC6500773 (Psychopharmacology, 2018):

Target: T1, hNET (Homo sapiens, UniProt P23975)
Assay: biochemical
Assay type: binding
Conditions: read-out: Inhibition of [125I]RTI-55 binding Ki ± sem, hNET

T1 sequence (P23975 whole entry): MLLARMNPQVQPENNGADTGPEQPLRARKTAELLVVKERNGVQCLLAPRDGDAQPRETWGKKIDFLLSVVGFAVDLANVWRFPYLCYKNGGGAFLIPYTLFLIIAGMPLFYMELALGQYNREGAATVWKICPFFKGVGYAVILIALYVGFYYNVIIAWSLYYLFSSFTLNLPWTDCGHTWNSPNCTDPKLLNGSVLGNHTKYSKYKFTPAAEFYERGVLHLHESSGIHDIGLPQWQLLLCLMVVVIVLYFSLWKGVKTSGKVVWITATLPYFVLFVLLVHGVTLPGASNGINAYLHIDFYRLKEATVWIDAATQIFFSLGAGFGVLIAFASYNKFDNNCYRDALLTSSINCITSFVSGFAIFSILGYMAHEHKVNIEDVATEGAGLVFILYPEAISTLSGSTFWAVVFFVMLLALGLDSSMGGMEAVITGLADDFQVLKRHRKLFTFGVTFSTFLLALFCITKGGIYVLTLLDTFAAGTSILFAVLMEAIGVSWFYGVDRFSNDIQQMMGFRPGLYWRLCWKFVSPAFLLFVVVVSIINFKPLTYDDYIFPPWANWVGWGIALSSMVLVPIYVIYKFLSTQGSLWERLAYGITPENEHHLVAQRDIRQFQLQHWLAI

| Compound | Ki [nM] |
| --- | --- |
| CNC(C)Cc1ccc2c(c1)OCO2 (centres unmarked) [MDMA, reference compound] | 15800 |

Same assay, conditions: read-out: Inhibition of [125I]RTI-55 binding Ki ± sem, hNET; HEK-hNET membranes

| Compound | Ki [nM] |
| --- | --- |
| CNC(C)Cc1ccc2occc2c1 (stereo not drawn) [5-MAPB, N,α-dimethyl-5-benzofuranethanamine] | 3150 ± 270 |
| CNC(C)Cc1cc2ccccc2o1 (stereo not drawn) [2-MAPB, N,α-dimethyl-2-benzofuranethanamine] | 1990 ± 220 |

Target: T2, hSERT (Homo sapiens, UniProt P31645)
T2 sequence (P31645 whole entry): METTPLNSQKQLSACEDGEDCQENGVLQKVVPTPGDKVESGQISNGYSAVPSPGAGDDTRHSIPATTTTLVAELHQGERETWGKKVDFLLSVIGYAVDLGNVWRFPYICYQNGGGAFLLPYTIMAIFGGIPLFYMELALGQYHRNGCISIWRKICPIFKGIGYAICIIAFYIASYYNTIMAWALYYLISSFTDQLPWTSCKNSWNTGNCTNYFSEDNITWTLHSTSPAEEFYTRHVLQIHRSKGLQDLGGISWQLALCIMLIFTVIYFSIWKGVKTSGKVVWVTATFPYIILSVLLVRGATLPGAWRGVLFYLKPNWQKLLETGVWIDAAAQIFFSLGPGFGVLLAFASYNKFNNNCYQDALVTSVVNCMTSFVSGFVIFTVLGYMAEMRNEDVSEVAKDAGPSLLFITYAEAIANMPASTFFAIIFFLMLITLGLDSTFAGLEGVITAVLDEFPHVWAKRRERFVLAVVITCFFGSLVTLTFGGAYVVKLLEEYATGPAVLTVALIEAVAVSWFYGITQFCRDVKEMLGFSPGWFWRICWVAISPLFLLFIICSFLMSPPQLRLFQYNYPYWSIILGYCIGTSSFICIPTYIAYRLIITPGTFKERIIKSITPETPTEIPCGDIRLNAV
Assay: Drug-induced release of preloaded [3H]5-HT from HEK-hSERT cells
Assay type: cell-based
Conditions: [3H]5-HT release

| Compound | releasing efficacy at hSERT |
| --- | --- |
| CNC(C)Cc1ccc2occc2c1 (stereo not drawn) [5-MAPB, N,α-dimethyl-5-benzofuranethanamine] | fully efficacious |
| CNC(C)Cc1cc2ccccc2o1 (stereo not drawn) [2-MAPB, N,α-dimethyl-2-benzofuranethanamine] | partial release |

Same assay, conditions: relative to maximal AUC induced by METH (0.3–1 mM)

| Compound | % maximum release ± sem, hSERT [3H]5-HT [%] |
| --- | --- |
| CNC(C)Cc1ccc2occc2c1 (stereo not drawn) [5-MAPB, N,α-dimethyl-5-benzofuranethanamine] | 104.3 ± 5.7 |
| CNC(C)Cc1cc2ccccc2o1 (stereo not drawn) [2-MAPB, N,α-dimethyl-2-benzofuranethanamine] | 77.3 ± 5.3 |

Target: T3, hDAT (Homo sapiens, UniProt Q01959)
T3 sequence (Q01959 whole entry): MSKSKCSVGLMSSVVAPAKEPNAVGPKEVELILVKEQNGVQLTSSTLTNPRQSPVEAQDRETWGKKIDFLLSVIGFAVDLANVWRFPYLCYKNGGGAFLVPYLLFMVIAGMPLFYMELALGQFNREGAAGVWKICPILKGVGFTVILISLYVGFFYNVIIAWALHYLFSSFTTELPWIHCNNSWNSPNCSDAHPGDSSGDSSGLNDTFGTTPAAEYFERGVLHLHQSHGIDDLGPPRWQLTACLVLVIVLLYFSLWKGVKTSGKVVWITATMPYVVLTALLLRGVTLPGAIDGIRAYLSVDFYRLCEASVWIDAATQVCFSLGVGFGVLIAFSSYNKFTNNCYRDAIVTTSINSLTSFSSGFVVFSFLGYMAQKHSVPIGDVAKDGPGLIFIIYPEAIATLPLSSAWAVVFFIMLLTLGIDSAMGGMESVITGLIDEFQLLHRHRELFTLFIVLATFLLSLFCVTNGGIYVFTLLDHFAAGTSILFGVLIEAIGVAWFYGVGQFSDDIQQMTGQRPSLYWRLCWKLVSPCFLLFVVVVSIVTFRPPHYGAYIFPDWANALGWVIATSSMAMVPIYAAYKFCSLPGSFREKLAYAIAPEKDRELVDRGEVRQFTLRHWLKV
Assay: Inhibition of [3H]DA uptake by HEK-hDAT cells
Assay type: cell-based
Conditions: 1/(DAT IC50) divided by 1/(SERT IC50), uptake; higher = more DAT selective

| Compound | Ratio DAT/SERT |
| --- | --- |
| CNC(C)Cc1ccc2c(c1)OCO2 (centres unmarked) [MDMA, reference compound] | 0.25 |
| CNC(C)Cc1ccc2occc2c1 (stereo not drawn) [5-MAPB, N,α-dimethyl-5-benzofuranethanamine] | 1.4 |
| CNC(C)Cc1cc2ccccc2o1 (stereo not drawn) [2-MAPB, N,α-dimethyl-2-benzofuranethanamine] | 3.0 |

Target: T1, hNET
Assay: Drug-induced release of preloaded [3H]NE from HEK-hNET cells
Assay type: cell-based
Conditions: [3H]NE release

| Compound | releasing efficacy at hNET |
| --- | --- |
| CNC(C)Cc1ccc2occc2c1 (stereo not drawn) [5-MAPB, N,α-dimethyl-5-benzofuranethanamine] | partially efficacious |
| CNC(C)Cc1cc2ccccc2o1 (stereo not drawn) [2-MAPB, N,α-dimethyl-2-benzofuranethanamine] | partial release |

Same assay, conditions: read-out: Drug-induced release of [3H]neurotransmitter EC50 ± sem, hNET [3H]NE; HEK-hNET cells

| Compound | EC50 [nM] |
| --- | --- |
| CNC(C)Cc1ccc2occc2c1 (stereo not drawn) [5-MAPB, N,α-dimethyl-5-benzofuranethanamine] | 580 ± 210 |
| CNC(C)Cc1cc2ccccc2o1 (stereo not drawn) [2-MAPB, N,α-dimethyl-2-benzofuranethanamine] | 450 ± 120 |

Same assay, conditions: relative to maximal AUC induced by METH (0.3 or 1 μM)

| Compound | % maximum release ± sem, hNET [3H]NE [%] |
| --- | --- |
| CNC(C)Cc1ccc2occc2c1 (stereo not drawn) [5-MAPB, N,α-dimethyl-5-benzofuranethanamine] | 89.0 ± 8.0 |
| CNC(C)Cc1cc2ccccc2o1 (stereo not drawn) [2-MAPB, N,α-dimethyl-2-benzofuranethanamine] | 63 ± 10 |

Target: T2, hSERT
Assay: not given
Conditions: relative to maximal METH release; ref Eshleman et al. 2017; cited from earlier work

| Compound | % maximum release ± sem, hSERT [3H]5-HT [%] |
| --- | --- |
| CNC(C)Cc1ccc2c(c1)OCO2 (centres unmarked) [MDMA, reference compound] | 85.1 ± 7.8 |

Target: T3, hDAT
Assay: not given
Conditions: relative to maximal METH release; ref Eshleman et al. 2017; cited from earlier work

| Compound | % maximum release ± sem, hDAT [3H]DA [%] |
| --- | --- |
| CNC(C)Cc1ccc2c(c1)OCO2 (centres unmarked) [MDMA, reference compound] | 94 ± 10 |

Target: T1, hNET
Assay: cell-based
Conditions: read-out: Inhibition of [3H]neurotransmitter uptake IC50 ± sem, hNET [3H]NE

| Compound | IC50 [nM] |
| --- | --- |
| CNC(C)Cc1ccc2c(c1)OCO2 (centres unmarked) [MDMA, reference compound] | 630 |

Same assay, conditions: read-out: Inhibition of [3H]neurotransmitter uptake IC50 ± sem, hNET [3H]NE; HEK-hNET cells

| Compound | IC50 [nM] |
| --- | --- |
| CNC(C)Cc1ccc2occc2c1 (stereo not drawn) [5-MAPB, N,α-dimethyl-5-benzofuranethanamine] | 73 ± 18 |
| CNC(C)Cc1cc2ccccc2o1 (stereo not drawn) [2-MAPB, N,α-dimethyl-2-benzofuranethanamine] | 39.3 ± 5.2 |

Target: T3, hDAT
Assay: Drug-induced release of preloaded [3H]DA from HEK-hDAT cells
Assay type: cell-based
Conditions: [3H]DA release

| Compound | releasing efficacy at hDAT |
| --- | --- |
| CNC(C)Cc1ccc2occc2c1 (stereo not drawn) [5-MAPB, N,α-dimethyl-5-benzofuranethanamine] | partially efficacious |
| CNC(C)Cc1cc2ccccc2o1 (stereo not drawn) [2-MAPB, N,α-dimethyl-2-benzofuranethanamine] | partial release |

Same assay, conditions: relative to maximal AUC induced by METH (1 or 10 μM)

| Compound | % maximum release ± sem, hDAT [3H]DA [%] |
| --- | --- |
| CNC(C)Cc1ccc2occc2c1 (stereo not drawn) [5-MAPB, N,α-dimethyl-5-benzofuranethanamine] | 53.8 ± 6.6 |
| CNC(C)Cc1cc2ccccc2o1 (stereo not drawn) [2-MAPB, N,α-dimethyl-2-benzofuranethanamine] | 48.0 ± 2.6 |

Target: T3, hDAT
Assay: not given
Conditions: 1/(DAT IC50) divided by 1/(SERT IC50), uptake; ref Eshleman et al. 2017; cited from earlier work

| Compound | Ratio DAT/SERT |
| --- | --- |
| CCCC(NC)C(=O)c1ccc2c(c1)OCO2 (centres unmarked) [Pentylone] | 4.9 |
| CCCC(C(=O)c1ccccc1)N1CCCC1 (stereo not drawn) [α-PVP] | 2900 |
| CCNC(C)C(=O)c1ccc2c(c1)OCO2 (centres unmarked) [ethylone] | 0.27 |
| CCCC(NC)C(=O)c1ccccc1 (centres unmarked) [Pentedrone] | 51 |

Same assay, conditions: ref Eshleman et al. 2013; Luethi et al. 2018; cited from earlier work

| Compound | DAT selectivity (DAT/SERT) [fold] |
| --- | --- |
| CNC(C)C(=O)c1ccc(C)cc1 (centres unmarked) [mephedrone] | 5.2 |

Target: T1, hNET
Assay: not given
Conditions: read-out: Inhibition of [3H]neurotransmitter uptake IC50 ± sem, hNET [3H]NE; HEK-hNET cells; ref Eshleman et al. 2017; cited from earlier work

| Compound | IC50 [nM] |
| --- | --- |
| CCCC(NC)C(=O)c1ccc2c(c1)OCO2 (centres unmarked) [Pentylone] | 650 ± 160 |
| CCCC(C(=O)c1ccccc1)N1CCCC1 (stereo not drawn) [α-PVP] | 46 ± 18 |
| CCCC(NC)C(=O)c1ccccc1 (centres unmarked) [Pentedrone] | 239 ± 67 |

Target: T3, hDAT
Assay: Inhibition of [125I]RTI-55 binding, HEK-hDAT membranes
Conditions: read-out: Inhibition of [125I]RTI-55 binding Ki ± sem, hDAT; HEK-hDAT membranes

| Compound | Ki [nM] |
| --- | --- |
| CNC(C)Cc1ccc2c(c1)OCO2 (centres unmarked) [MDMA, reference compound] | 31000 ± 4900 |
| CNC(C)Cc1ccc2occc2c1 (stereo not drawn) [5-MAPB, N,α-dimethyl-5-benzofuranethanamine] | 2660 ± 610 |
| CNC(C)Cc1cc2ccccc2o1 (stereo not drawn) [2-MAPB, N,α-dimethyl-2-benzofuranethanamine] | 1630 ± 440 |

Target: T1, hNET
Assay: not given
Conditions: read-out: Drug-induced release of [3H]neurotransmitter EC50 ± sem, hNET [3H]NE; HEK-hNET cells; ref Eshleman et al. 2017; cited from earlier work

| Compound | EC50 [nM] |
| --- | --- |
| CNC(C)Cc1ccc2c(c1)OCO2 (centres unmarked) [MDMA, reference compound] | 360 ± 92 |

Same assay, conditions: relative to maximal METH release; ref Eshleman et al. 2017; cited from earlier work

| Compound | % maximum release ± sem, hNET [3H]NE [%] |
| --- | --- |
| CNC(C)Cc1ccc2c(c1)OCO2 (centres unmarked) [MDMA, reference compound] | 147 ± 15 |

Tested on: mouse striatum
Assay: not given
Conditions: administered orally, ref Fuwa et al. 2016; cited from earlier work

| Compound | increase in extracellular 5-HT levels |
| --- | --- |
| CCNC(C)Cc1ccc2occc2c1 (centres unmarked) [5-EAPB, reference compound] | 6- to 12 fold |
| CNC(C)Cc1ccc2occc2c1 (stereo not drawn) [5-MAPB, N,α-dimethyl-5-benzofuranethanamine] | 6- to 12 fold |
| CNC(C)Cc1cc2ccccc2o1 (stereo not drawn) [2-MAPB, N,α-dimethyl-2-benzofuranethanamine] | 6- to 12 fold |
